These results are taken from ChEMBL document CHEMBL1140180, “Antiproliferative triterpenes from Melaleuca ericifolia” (J Nat Prod, 2008).

A short description of the experiment: Antiproliferative activity against mouse +SA mammary epithelial cells after 4 days by MTT assay. It counts as functional, cell-based. To be noted: Epithelial cell, 96 h. For orientation: Tetrazolium assays rely on reduction of a dye to a coloured formazan, in cell work by metabolically active cells.

For orientation: IC50 means the concentration at which inhibition is half-maximal. A lower IC50 goes with inhibition by little substance.

With `C[C@H]1[C@H](C)CC[C@]2(C(=O)O)CC[C@]3(C)C(=CC[C@@H]4[C@@]5(C)C[C@@H](O)[C@H](O)[C@@](C)(CO)[C@@H]5CC[C@]43C)[C@H]12` [ASIATIC ACID], the IC50 was greater than 20 µM.
The same measure for `C=C(C)[C@@H]1CC[C@]2(O)CC[C@]3(C)[C@H](CC[C@@H]4[C@@]5(C)CC[C@H](O)C(C)(C)[C@@H]5CC[C@]43C)[C@@H]12`: 18.7 µM; for `C=C(C)[C@@H]1CC[C@]2(C(=O)O)CC[C@]3(C)[C@H](CC[C@@H]4[C@@]5(C)CC[C@H](O)C(C)(C)[C@@H]5CC[C@]43C)[C@@H]12` [BETULINIC ACID]: greater than 20 µM; for `C[C@H]1CO[C@]23CC[C@@H]1[C@@H]2[C@H]1CC[C@@H]2[C@@]4(C)CC[C@H](O)C(C)(C)[C@@H]4CC[C@@]2(C)[C@]1(C)CC3`: 18.1 µM.
The figure for `C=C(C)[C@@H]1CC[C@@]2(OO)CC[C@]3(C)[C@H](CC[C@@H]4[C@@]5(C)CC[C@H](O)C(C)(C)[C@@H]5CC[C@]43C)[C@@H]12` is greater than 20 µM.
The same measure for `C=C(C)[C@@H]1CC[C@]2(CO)CC[C@]3(C)[C@H](CC[C@@H]4[C@@]5(C)CC[C@H](O)C(C)(C)[C@@H]5CC[C@]43C)[C@@H]12` [BETULIN]: greater than 20 µM.
Consider `CC(=O)[C@@H]1CC[C@]2(C(=O)O)CC[C@]3(C)[C@H](CC[C@@H]4[C@@]5(C)CC[C@H](O)C(C)(C)[C@@H]5CC[C@]43C)[C@@H]12` [PLATANIC ACID], for which the IC50 is greater than 20 µM.
The same measure for `C=C(C)[C@@H]1CC[C@]2(OO)CC[C@]3(C)[C@H](CC[C@@H]4[C@@]5(C)CC[C@H](O)C(C)(C)[C@@H]5CC[C@]43C)[C@@H]12`: 15.5 µM; for `C[C@H]1[C@H](C)CC[C@]2(C(=O)O)CC[C@]3(C)C(=CC[C@@H]4[C@@]5(C)CC[C@H](O)C(C)(C)[C@@H]5CC[C@]43C)[C@H]12` [URSOLIC ACID]: greater than 20 µM; for `C=C(C)[C@@H]1CC[C@]2(C=O)CC[C@]3(C)[C@H](CC[C@@H]4[C@@]5(C)CC[C@H](O)C(C)(C)[C@@H]5CC[C@]43C)[C@@H]12` [BETULINALDEHYDE]: 19.4 µM.
